Data from US10626368B2, “Method for inducing cerebral cortex neurons” (KYOTO UNIVERSITY, priority 2015, dated 2020).

Legend:
[1] = tested on: ES cells or the iPS cells; experiment: Immunostaining for CoupTF1 and Ctip2 after 46 days of cerebral cortex differentiation; format: cell-based, human; conditions: 2 nM C59 as Wnt inhibitor, 46 days; compared with 500 ng/ml DKK1, 500 nM XAV
Excerpt: Human ES cells (KhES-1) were obtained from Institute for Frontier Medical Sciences, Kyoto University (Suemori H, et al. Biochem Biophys Res Commun. 345: 926-32, 2006). The human iPS cells 404C2 are cells obtained by introducing Oct3/4, Sox2, Klf4, L-MYC, LIN28 and p53shRNA into human fibroblasts, using an episomal vector, and these cells were obtained from Professor Yamanaka et al. in Kyoto University (Okita, et al, Nat Methods. 8: 409-412, 2011). The human iPS cells 836B1 are cells obtained by introducing Oct3/4, Sox2, Klf4, L-MYC, LIN28, GLIS1 and p53shRNA into human fibroblasts, using an episomal vector, and these cells were obtained from Professor Yamanaka et al. in Kyoto University. The ES cells and the iPS cells were cultured on SNL cells (Takahashi K, et al, Cell. 131: 861-872, 2007).
On the day before induction of differentiation, in order to separate the ES cells or the iPS cells, which had been cultured in a culture medium to which 10 μM Y-27632 (WAKO) had been added, from the SNL feeder cells, the SNL cells were removed with CTK and the remaining cells were then dissociated using Accumax (ICT). The cells were transferred on a 96-well plate (Lipidure-coat 96-well plate (NOF Corporation)) in an amount of 9×10^3 cells per well. Thereafter, the cells were subjected to a suspension culture in DMEM/F12 (WAKO) comprising 50 μM Y-27632 (WAKO), 10 μM SB43152 (Sigma), 10 ng/ml bFGF (Invitrogen), various types of Wnt inhibitors (DKK1 (R & D, 500 ng/ml), C59 (Cellagen Technology, 2-10 nM), XAV (Stemgent, 500 nM-2 μM) or IWP4 (Stemgent, 500 nM-2.5 μM)), LDN193189 (Stemgent), KSR (Invitrogen), 0.1 mM MEM non-essential amino acid (Invitrogen), 0.1 mM 2-mercaptoethanol (WAKO), and 2 mM L-Gln (Invitrogen) (initiation of differentiation induction, day 0). […]
The concentration of LDN193189 used in the above-described induction method was examined. […] Furthermore, the expression levels of the CoupTF1 and Sfrp1 genes were measured according to a qPCR method (FIG. 5C). […]

ES cells (Kh-1) = experiment: Adhesion of spheres to OFL coat dish; format: cell-based, human; conditions: 10 nM C59, ES cells (Kh-1)
Excerpt: Human ES cells (KhES-1) were obtained from Institute for Frontier Medical Sciences, Kyoto University (Suemori H, et al. Biochem Biophys Res Commun. 345: 926-32, 2006). The human iPS cells 404C2 are cells obtained by introducing Oct3/4, Sox2, Klf4, L-MYC, LIN28 and p53shRNA into human fibroblasts, using an episomal vector, and these cells were obtained from Professor Yamanaka et al. in Kyoto University (Okita, et al, Nat Methods. 8: 409-412, 2011). The human iPS cells 836B1 are cells obtained by introducing Oct3/4, Sox2, Klf4, L-MYC, LIN28, GLIS1 and p53shRNA into human fibroblasts, using an episomal vector, and these cells were obtained from Professor Yamanaka et al. in Kyoto University. The ES cells and the iPS cells were cultured on SNL cells (Takahashi K, et al, Cell. 131: 861-872, 2007). The obtained cell mass was transferred on a dish (24-well plate (BD)) coated with 50 μg/ml ornithine (Sigma), 5 μg/ml laminin (Sigma) and 5 μg/ml fibronectin (BD Bioscience Pharmingen), and the culture was continued in Neurobasal (Invitrogen), to which B27 (Invitrogen), 2 mM L-Gln, and 10 units/ml penicillin and streptomycin (Invitrogen) had been added. […] Furthermore, the expression levels of the Foxg1, Lhx2, Emx2 and CoupTF1 genes in the obtained spheres were measured according to a qPCR method (FIG. 4B). […]

Cc1cc(-c2ccc(CC(=O)Nc3ccc(-c4cccnc4)cc3)cc2)ccn1 [C59]
CoupTF1-negative Ctip2-positive cerebral cortex neurons induced [1]: a large number | adhesion of spheres to an OFL coat dish (ES cells (Kh-1)): did not adhere so much
